Experimental data as given in US10959968B2, “Methods for treating c-Met-dependent cancers” (Board of Supervisors of Louisiana State University and …, priority 2016, dated 2021).

Columns and labels:
[1] = system: DU145 human prostate cancer cells (pMet, pAkt, pErk); assay: Western blot of HGF-induced signaling in prostate cancer cells; format: cell-based; settings: 30 min pretreatment, 30 min HGF
Method: FIG. 4. A) Effect of HVS treatment on HGF-induced c-Met activation in human breast cancer cells using Western Blot analysis. Treatment with HVS caused a significant, dose-responsive inhibition of HGF-induced c-Met phosphorylation in MDA-MB-231, MCF-7, and BT-474 mammary tumor cells with no effect on total c-Met levels after treatment for 72 h, as compared to their respective vehicle-treated control groups. The visualization of β-tubulin was used as a loading control. (B) Effect of HVS on HGF-induced c-Met activation and its downstream mitogenic signaling in DU145 human prostate cancer cells, as compared to vehicle-treated control group, using Western Blot analysis. Cells were pre-treated for 30 minutes with either HVS at 0.1, 0.3, 1, and 5 μM or (−)-oleocanthal at 5, 10, and 20 μM doses in serum-free 0.4-media. 33 ng/mL HGF was then added for 30 minutes. Whole cell lysates were collected and assayed by Western Blot. The visualization of α-tubulin was used as a loading control. Representative Western Blots from each experiment are shown, N=3.
DU145 prostate tumor cells were pretreated for 30 minutes with the indicated compounds. Following pretreatment, cells were pulsed for thirty minutes with HGF, cell lysates were prepared and western blot analysis was performed to identify pMet, pAkt, pErk and tubulin.

DU145 spheroids = assay: 3D spheroid growth, IncuCyte; format: cell-based, human; settings: 10 micromolar, 72 hours
Method: FIG. 9B: DU145 cells were grown in 10% FBS DMEM. Cells were collected after trypsinization and resuspended in phenol-red free DMEM with 10% FBS. Cells were labeled with Cell-Tracker Red (Life Technologies) for 5 minutes. After labeling cells were washed with PBS and transfer into 96-well Corning 7007 ULA round bottom plates at 1,000 cells/well in 100 μl phenol-red free media with 10% FBS and 5% Matrigel. […] Spheroids were grown at 37° C. and 5% CO2 in IncuCyte ZOOM (Essen Bioscience). Images were acquired every 4 h for a period of 72 h post-treatment and software analysis was design to identify the red object in the well. The data were expressed as fold increase in spheroids size at the end of the treatment using the “average red object area in the well” as determined by the IncuCyte software analysis. FIG. 9C: Visually representative spheroids that are quantitated in FIG. 9B.
To determine the effectiveness of these compounds under 3D growth conditions which more accurately predict effectiveness of new drugs in humans, DU145 spheroids were formed and allowed to grow for 72 hours. Images were recorded every 4 hours using the Incucyte platform. […] Compounds 9 and 10, at 10 micromolar reduced spheroid growth by about 50 percent (not shown).

MDA-MB231 spheroids = assay: 3D spheroid growth, IncuCyte; format: cell-based, human; settings: 10 micromolar, results not shown
Method: FIG. 9. (A). MDA-MB231 cells were grown in 10% FBS DMEM. Cells were collected after trypsinization and resuspended in phenol-red free DMEM with 10% FBS. Cells were labeled with CellTracker Red (Life Technologies) for 5 minutes. After labeling cells were washed with PBS and transfer into 96-well Corning 7007 ULA round bottom plates at 1,000 cells/well in 100 μl phenol-red free media with 10% FBS and 5% Matrigel. […] Spheroids were grown at 37° C. and 5% CO2 in IncuCyte ZOOM (Essen Bioscience). Images were acquired every 4 h for a period of 72 h post-treatment. The data were expressed as fold increase in spheroids size at the end of the treatment using the “average red object area in the well” as determined by the IncuCyte software analysis.
MDA-MB231 spheroids were all allowed to form and treated with compounds for up to 72 hours. Images were captured using the Incucyte platform.

COc1cc(CCOC(=O)/C=C/c2cc(OC)c(O)c(OC)c2)ccc1N [Compound 9, (E)-4-amino-3-methoxyphenethyl 3-(4-hydroxy-3,5-dimethoxyphenyl)-acrylate]
pAkt signaling [1]: did attenuate
pMet induction [1]: did not lower
reduction of spheroid growth (DU145 spheroids): about 50%
effect on spheroid growth (MDA-MB231 spheroids): effective

COc1cc(/C=C/C(=O)OCCc2ccc(N)nc2)cc(OC)c1O [Compound 10, (E)-2-(6-aminopyridin-3-yl)ethyl 3-(4-hydroxy-3,5-dimethoxyphenyl)acrylate]
HGF-induced (Met dependent) signaling [1]: appeared to increase
reduction of spheroid growth (DU145 spheroids): about 50%
effect on spheroid growth (MDA-MB231 spheroids): effective
